Experimental data reported in patent US9522888B2, “Substituted bicyclic compounds” (BRISTOL-MYERS SQUIBB COMPANY, priority 2014, dated 2016).

What was measured:
human S1P1 = human S1P1 (Homo sapiens (Human), UniProt P21453); test: S1P1 binding assay (33P-S1P radioligand competition, CHO cell membranes); conditions: phosphate examples; read-out: S1P1 Binding
Description: Membranes were prepared from CHO cells expressing human S1P1. Cells pellets (1×10^9 cells/pellet) were suspended in buffer containing 20 mM HEPES (4-(2-hydroxyethyl)-1-piperazineethanesulfonic acid), pH 7.5, 50 mM NaCl, 2 mM EDTA (Ethylenediaminetetraacetic acid) and Protease Inhibitor cocktail (Roche), and disrupted on ice using the Polytron homogenizer. The homogenate was centrifuged at 20,000 rpm (48,000 g) and the supernatant was discarded. The membrane pellets were resuspended in buffer containing 50 mM HEPES, pH 7.5, 100 mM NaCl, 1 mM MgCl2, 2 mM EDTA and stored in aliquots at −80° C. after protein concentration determination.

[1] = molecular target: S1P1 (membranes prepared from S1P1/CHO cells) (Homo sapiens (Human), UniProt P21453); test: Receptor [35S] GTPγS binding assay (S1P1 GTPγS); assay type: biochemical; conditions: phosphate examples; read-out: S1P1 GTPγS
Sequence of S1P1 (membranes prepared from S1P1/CHO cells) (P21453 whole entry): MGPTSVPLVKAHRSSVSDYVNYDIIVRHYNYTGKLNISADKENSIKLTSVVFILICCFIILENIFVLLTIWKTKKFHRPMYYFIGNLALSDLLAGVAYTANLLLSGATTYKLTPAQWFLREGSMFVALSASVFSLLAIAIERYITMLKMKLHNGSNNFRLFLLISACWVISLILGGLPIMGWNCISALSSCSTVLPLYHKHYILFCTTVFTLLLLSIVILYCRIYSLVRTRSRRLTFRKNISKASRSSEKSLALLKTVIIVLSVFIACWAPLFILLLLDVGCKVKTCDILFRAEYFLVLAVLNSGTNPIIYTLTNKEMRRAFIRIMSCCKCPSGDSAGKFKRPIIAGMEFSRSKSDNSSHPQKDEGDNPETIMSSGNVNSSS
Description: (§1) Receptor [^35S] GTPγS Binding Assays: (S1P1 GTPγS/S1P3 GTPγS)
Compounds were loaded in a 384 Falcon v-bottom plate (0.5 μl/well in a 11 point, 3-fold dilution). Membranes prepared from S1P1/CHO cells or EDG3-Gal5-bla HEK293T cells (EDG3 equivalent S1P3) were added to the compound plate (40 μl/well, final protein 3 μg/well) with MULTIDROP®. [^35S] GTP (1250 Ci/mmol, Perkin Elmer) was diluted in assay buffer: 20 mM HEPES, pH7.5, 10 mM MgCl2, 150 mM NaCl, 1 mM EGTA (ethylene glycol tetraacetic acid), 1 mM DTT (Dithiothreitol), 10 μM GDP, 0.1% fatty acid free BSA, and 10 μg/ml Saponin to 0.4 nM. 40 μl of the [^35S] GTP solution was added to the compound plate with a final concentration of 0.2 nM. The reaction was kept at room temperature for 45 min. At the end of incubation, all the mixtures in the compound plate were transferred to Millipore 384-well FB filter plates via the VELOCITY11® Vprep liquid handler. The filter plate was washed with water 4 times by using the manifold Embla plate washer and dried at 60° C. for 45 min. MicroScint 20 scintillation fluid (30 μl) was added to each well for counting on the Packard TOPCOUNT®. […]

[2] = molecular target: S1P3 (membranes prepared from EDG3-Gal5-bla HEK293T cells) (Homo sapiens (Human), UniProt Q99500); test: Receptor [35S] GTPγS binding assay (S1P3 GTPγS); assay type: biochemical; conditions: phosphate examples; read-out: S1P3 GTPγS
Sequence of S1P3 (membranes prepared from EDG3-Gal5-bla HEK293T cells) (Q99500 whole entry): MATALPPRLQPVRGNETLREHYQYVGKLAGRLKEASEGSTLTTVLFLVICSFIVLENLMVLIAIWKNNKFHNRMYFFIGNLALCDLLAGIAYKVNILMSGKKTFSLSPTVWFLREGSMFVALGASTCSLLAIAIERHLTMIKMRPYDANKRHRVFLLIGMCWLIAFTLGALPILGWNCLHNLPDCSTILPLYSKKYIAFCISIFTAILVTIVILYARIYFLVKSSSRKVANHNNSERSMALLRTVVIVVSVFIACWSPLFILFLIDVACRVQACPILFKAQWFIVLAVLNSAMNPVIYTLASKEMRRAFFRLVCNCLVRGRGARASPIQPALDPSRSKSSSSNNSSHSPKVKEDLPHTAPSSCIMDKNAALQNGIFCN
Description: as §1
Compounds were loaded in a 384 Falcon v-bottom plate (0.5 μl/well in a 11 point, 3-fold dilution). Membranes prepared from S1P1/CHO cells or EDG3-Gal5-bla HEK293T cells (EDG3 equivalent S1P3) were added to the compound plate (40 μl/well, final protein 3 μg/well) with MULTIDROP®. [^35S] GTP (1250 Ci/mmol, Perkin Elmer) was diluted in assay buffer: 20 mM HEPES, pH7.5, 10 mM MgCl2, 150 mM NaCl, 1 mM EGTA (ethylene glycol tetraacetic acid), 1 mM DTT (Dithiothreitol), 10 μM GDP, 0.1% fatty acid free BSA, and 10 μg/ml Saponin to 0.4 nM. 40 μl of the [^35S] GTP solution was added to the compound plate with a final concentration of 0.2 nM. The reaction was kept at room temperature for 45 min. At the end of incubation, all the mixtures in the compound plate were transferred to Millipore 384-well FB filter plates via the VELOCITY11® Vprep liquid handler. The filter plate was washed with water 4 times by using the manifold Embla plate washer and dried at 60° C. for 45 min. MicroScint 20 scintillation fluid (30 μl) was added to each well for counting on the Packard TOPCOUNT®.
A smaller value for GTPγS S1P1 EC50 value indicated greater activity for the compound in the GTPγS S1P1 binding assay. A larger value for the GTPγS S1P3 EC50 value indicated less activity in the GTPγS S1P3 binding assay. […] Thus the compounds of the present invention may be used in treating, preventing, or curing various S1P1 receptor-related conditions while reducing or minimizing the side effects due to S1P3 activity. The selectivity of the compounds of the present invention indicate their potential use in treating, preventing, or curing autoimmune and inflammatory diseases such as multiple sclerosis, rheumatoid arthritis, inflammatory bowel disease, lupus, psoriasis, or vascular diseases, while reducing or minimizing possible side effects due to S1P3 activity. Other potential uses of the compounds of the present invention include minimizing or reducing rejection of transplanted organs, while reducing or minimizing side effects due to S1P3 activity.

hS1P1/CHO cells = hS1P1/CHO cells (Homo sapiens (Human), UniProt P21453); test: hS1P1 ERK phosphorylation (S1P1 pERK); assay type: cell-based; conditions: phosphate examples
Sequence of hS1P1/CHO cells (P21453 whole entry): as the sequence (P21453 whole entry) above
Description: hS1P1 ERK Phosphorylation (S1P1 pERK)
hS1P1/CHO cells were plated into BD Amine 384-well plates the day before the assay. On the day of the assay, growth medium was removed and replaced with serum-free medium (Ham's F-12 Invitrogen) and incubated for 2 hours. Test compounds pre-diluted in HBSS (Gibco)/20 mM HEPES (Gibco) were transferred to the cell plates and incubated for 7 minutes at 37° C. Cells were lysed in lysis buffer (Perkin Elmer) and phospho-ERK was measured using the SureFire pERK kit (Perkin Elmer) as described by the manufacturer. Data was plotted as percentage activation of the test compound relative to the efficacy of 10 μM S1P.

Sequence of human S1P1 (P21453 whole entry): as above

Row | SMILES | IC50 (human S1P1) [nM] | EC50 [1] [nM] | EC50 [2] [nM] | EC50 (hS1P1/CHO cells) [nM]
1 | N[C@]1(COP(=O)(O)O)CC[C@H](c2ccc3c(c2)CC[C@H](C[S+]([O-])c2ccccc2)C3)C1 (stereo partly drawn) [Example 667, ((1R,3S)-1-amino-3-((6S)-6-((phenylsulfinyl)methyl)-5,6,7,8-tetrahydronaphthalen-2-yl)cyclopentyl)methyl dihydrogen phosphate] | 100 to 1000 | 100 to 1000 | > 625 | 100 to 1000
2 | CCCCOC[C@@H]1COc2cc([C@@H]3CC[C@](N)(COP(=O)(O)O)C3)ccc2O1 [compound 415] | 10 to 100 | 10 to 100 | > 625 | 10 to 100
3 | CCCCCCN1CCc2cc([C@@H]3CC[C@](N)(COP(=O)(O)O)C3)ccc2C1=O [compound 417] | 10 to 100 | 100 to 1000 | > 625 | < 10
4 | CCCCCCC1CCc2cc([C@@H]3CC[C@](N)(COP(=O)(O)O)C3)ccc2O1 (stereo partly drawn) [compound 420] | 10 to 100 | 10 to 100 | > 625 | 1000 to 10000
5 | CCCCCC[C@@H]1COc2cc([C@@H]3CC[C@](N)(COP(=O)(O)O)C3)ccc2C1 [compound 423] | 100 to 1000 | 100 to 1000 | > 625 | 10 to 100
6 | CCCCCC[C@H]1COc2cc([C@H]3CC[C@](N)(COP(=O)(O)O)C3)ccc2C1 [compound 424] | 10 to 100 | 10 to 100 | > 625 | < 10
7 | CCCCCC[C@H]1Cc2ccc([C@H]3CC[C@](N)(COP(=O)(O)O)C3)cc2CO1 [compound 426] | 10 to 100 | < 10 | > 625 | < 10
8 | CCCCCC[C@@H]1Cc2ccc([C@H]3CC[C@](N)(COP(=O)(O)O)C3)cc2CO1 [compound 427] | 10 to 100 | < 10 | > 625 | < 10
9 | CCCCCO[C@@H]1CCc2cc([C@H]3CC[C@](N)(COP(=O)(O)O)C3)ccc2C1 [compound 430] | 10 to 100 | 10 to 100 | > 625 | < 10
10 | CCCCCO[C@H]1CCc2cc([C@H]3CC[C@](N)(COP(=O)(O)O)C3)ccc2C1 [compound 431] | 10 to 100 | 100 to 1000 | > 625 | < 10
11 | CCCCCO[C@@H]1CCc2cc([C@@H]3CC[C@](N)(COP(=O)(O)O)C3)ccc2C1 [compound 433] | 10 to 100 | 100 to 1000 | > 625 | < 10
12 | N[C@]1(COP(=O)(O)O)CC[C@H](c2ccc3c(c2)CC[C@H](COCc2ccccc2)C3)C1 [compound 445] | 10 to 100 | 10 to 100 | > 625 | 10 to 100
13 | CCCCOC[C@H]1CCc2cc([C@H]3CC[C@](N)(COP(=O)(O)O)C3)ccc2C1 [compound 446] | 10 to 100 | 100 to 1000 | > 625 | < 10
14 | CCCCOC[C@@H]1CCc2cc([C@H]3CC[C@](N)(COP(=O)(O)O)C3)ccc2C1 [compound 447] | 10 to 100 | 100 to 1000 | > 625 | < 10
15 | N[C@]1(COP(=O)(O)O)CC[C@H](c2ccc3c(c2)CC[C@@H](COc2ccc(F)cc2)C3)C1 [compound 449] | < 10 | 10 to 100 | > 625 | 10 to 100
16 | CCCCCCCCCCOC[C@H]1CCc2cc([C@H]3CC[C@](N)(COP(=O)(O)O)C3)ccc2C1 [compound 450] | < 10 | < 10 | > 625 | 10 to 100
17 | N[C@]1(COP(=O)(O)O)CC[C@H](c2ccc3c(c2)CC[C@@H](COCCCC(F)(F)F)C3)C1 [compound 451] | < 10 | < 10 | > 625 | 10 to 100

The next lines start with the values.

Row | IC50 (human S1P1) [nM] | EC50 [1] [nM] | EC50 [2] [nM] | EC50 (hS1P1/CHO cells) [nM] | SMILES
18 | < 10 | 10 to 100 | > 625 | 1000 to 10000 | CCCCOC[C@@H]1COc2cc([C@H]3CC[C@](N)(COP(=O)(O)O)C3)ccc2O1 [compound 414]
19 | < 10 | < 10 | > 625 | < 10 | CCCCCCC1Cc2ccc([C@H]3CC[C@](N)(COP(=O)(O)O)C3)cc2CO1 (stereo partly drawn) [compound 421]
20 | < 10 | < 10 | > 625 | < 10 | CCCCCC[C@H]1COc2cc([C@@H]3CC[C@](N)(COP(=O)(O)O)C3)ccc2C1 [compound 425]
21 | < 10 | < 10 | > 625 | 10 to 100 | CCCCCCC[C@H]1Cc2ccc([C@H]3CC[C@](N)(COP(=O)(O)O)C3)cc2CO1 [compound 428]
22 | < 10 | < 10 | > 100 | 10 to 100 | CCCCCCCOC1CCc2cc([C@H]3CC[C@](N)(COP(=O)(O)O)C3)ccc2C1 (stereo partly drawn) [compound 432]
23 | < 10 | 10 to 100 | > 625 | < 10 | CCCCCO[C@H]1CCc2cc([C@@H]3CC[C@](N)(COP(=O)(O)O)C3)ccc2C1 [compound 434]
24 | < 10 | 10 to 100 | > 625 | < 10 | CCCCO[C@H]1CCc2cc([C@H]3CC[C@](N)(COP(=O)(O)O)C3)ccc2C1 [compound 436]
25 | < 10 | < 10 | > 625 | < 10 | CCC/C=C\CO[C@H]1CCc2cc([C@H]3CC[C@](N)(COP(=O)(O)O)C3)ccc2C1 [compound 437]
26 | < 10 | 10 to 100 | > 625 | < 10 | CCC/C=C\CO[C@@H]1CCc2cc([C@H]3CC[C@](N)(COP(=O)(O)O)C3)ccc2C1 [compound 438]
27 | < 10 | < 10 | > 625 | < 10 | CCCC/C=C\CO[C@H]1CCc2cc([C@H]3CC[C@](N)(COP(=O)(O)O)C3)ccc2C1 [compound 440]
28 | < 10 | < 10 | > 625 | < 10 | COc1cccc(CO[C@H]2CCc3cc([C@H]4CC[C@](N)(COP(=O)(O)O)C4)ccc3C2)c1 [compound 442]
29 | < 10 | < 10 | > 625 | < 10 | CCOc1cccc(CO[C@@H]2CCc3cc([C@H]4CC[C@](N)(COP(=O)(O)O)C4)ccc3C2)c1 [compound 444]
30 | < 10 | < 10 | > 625 | < 10 | CCCCCOC[C@H]1CCc2cc([C@H]3CC[C@](N)(COP(=O)(O)O)C3)ccc2C1 [compound 448]
